According to BigSolDB 2.1:

Details: in water

O=C(O)c1cc(O)c(O)c(O)c1
Details | solubility (mole fraction)
298 K | 0.00158
303 K | 0.00176
308 K | 0.00203
313 K | 0.00248
318 K | 0.00311
323 K | 0.00433
328 K | 0.00557
333 K | 0.00712
338 K | 0.00898
343 K | 0.0126
